Assay type in all cases: in vivo, human
Assay [1] has as its system IL-4/13 signature genes in bronchial airway epithelium. Kind of assay: Microarray analysis of bronchial epithelial brushings at baseline and after one week of ICS treatment. The source says:
(A) Periostin expression; (B) PRR4 expression; (C) RUNX2 expression.
We studied biological samples stored in the Airway Tissue Bank at the University of California, San Francisco (UCSF) that had been collected during bronchoscopy performed for research purposes in healthy and asthmatic volunteers. Research bronchoscopy had included collection of epithelial brushings, bronchoalveolar lavage (BAL) and bronchial biopsies using specific methods previously described. BAL cell counts and differentials had been performed and databased, and macrophages had been sorted from BAL fluid using flow cytometry. Four to six bronchial biopsies had been obtained from 2nd-through 5th-order carinae (contralateral to the brushing site), formalin-fixed, and then paraffin-embedded in isotropic uniform random orientation to enable quantitative measures of inflammation and remodeling using methods of design-based stereology. An additional 2 bronchial biopsies had been homogenized and processed for RNA using the Qiagen RNeasy minikit (Qiagen Inc., Valencia, Calif.). RNA extracted from epithelial brushings, homogenates of bronchial biopsies, and lavage macrophages had been quality assured and aliquoted for future microrray- and PCR-based gene profiling. All research bronchoscopy studies had been approved by the UCSF Committee on Human Research (CHR), written informed consent had been obtained from all subjects, and all studies had been performed in accordance with the principles expressed in the Declaration of Helsinki The Airway Tissue Bank procedures were also reviewed and approved by UCSF's CHR. Samples of epithelial brushings and macrophages from this tissue bank have been used in previously reported studies. Most recently, microarray analyses of differentially expressed genes in epithelial brushings in asthmatic subjects have been reported by us.
Thirty-two of the subjects with asthma had also been enrolled in a double-blind randomized controlled clinical trial of inhaled fluticasone (500 μg, twice daily, N=19) or matched placebo (N=13) (ClinicalTrials.gov Identifier: NCT00187499). The trial was designed to determine the effects of inhaled steroid (fluticasone) on airway gene expression and to relate gene expression changes to improvements in lung function. The asthma subjects in the clinical trial had undergone baseline bronchoscopy and had been randomized to receive study medication before undergoing repeat bronchoscopy one week later after starting study drug. Asthma subjects continued study medication for a total of 8 weeks. Healthy control subjects and smokers were enrolled in one of three cross-sectional studies, which comprised two visits each, the first for characterization and the second for bronchoscopy 1 week later. Thirty-five subjects had adequate baseline bronchoscopy, and 32 had RNA available from epithelial brushings at both bronchoscopies. Lung function was measured (by spirometry) after 4 weeks and 8 weeks on study medication, and a final spirometry was completed after a one week run-out. […]
Microarray data from mild-moderate non-smoking asthma patients and healthy non-smoking subjects were obtained from a previous study as described. […] Microarray data was analysed in the present study to determine whether genes were differentially regulated within the asthmatic group. Also, the microarray data was analyzed to determine whether other genes were co-regulated with top asthma-related, IL-13 induced genes. […]

Assay [2] has as its system serum IgE. The assay can be described thus: Serum IgE (clinical laboratory or ELISA). The settings on record: asthmatics on inhaled corticosteroids (N = 51) vs No ICS (N = 49). The method, then:
(§1) Serum IgE was measured by UCSF clinical laboratories or by ELISA using a human serum IgE ELISA kit according to manufacturer's instructions (Bethyl Laboratories). Serum CEA was measured using a human serum CEA ELISA kit according to manufacturer's instructions (Alpco Diagnostics). We developed an electrochemiluminescent assay (ECLA) to measure serum periostin using anti-periostin antibodies (R&D systems). Briefly, monoclonal anti-periostin was coated onto plates at 1.5 micrograms/ml in sodium carbonate buffer, pH 9.6 overnight at 4° C. Plates were blocked in assay buffer (1×PBS pH 7.4, 0.35 M NaCl, 0.5% BSA, 0.05% Tween 20, 0.25% CHAPS, 5 mM EDTA, 15PPM Proclin)+3% BSA for 2 hours at room temperature, then washed 4× with TBST (Tris-buffered saline+0.1% Tween-20). Serum was diluted 1:5 in assay buffer and incubated with agitation at room temperature for 2 h, then washed 4× with TBST. Recombinant periostin (R&D Systems) was used to establish a standard range. […] Reading buffer (Meso Scale Devices) was added and electrochemiluminescence was read (Meso Scale Devices). […] In addition, we measured IgE and YKL-40, a serum marker previously described to be elevated in some asthmatics, in these same sera. […]
A general note: ELISA stands for enzyme-linked immunosorbent assay.

Assay [3] deals with serum CEA. Kind of assay: Serum CEA ELISA. The conditions noted are these: asthmatics on inhaled corticosteroids (N = 51) vs No ICS (N = 49). Here is the method:
as §1

Assay [4] relates to serum periostin. Kind of assay: Serum periostin electrochemiluminescent assay (ECLA). The conditions noted are these: asthmatics on inhaled corticosteroids (N = 51) vs No ICS (N = 49). Here is the method: as §1
[5] abbreviates: 19 subjects, one week of ICS treatment, vast majority of genes.
[6] abbreviates: individual subjects after one week of ICS treatment.

Molecules are shown by their SMILES.

Turning to `CCC(=O)O[C@]1(C(=O)SCF)[C@H](C)C[C@H]2[C@@H]3C[C@H](F)C4=CC(=O)C=C[C@]4(C)[C@@]3(F)[C@@H](O)C[C@@]21C` [fluticasone, fluticasone propionate], in assay [1] (setting [5]), the “Expression of IL-4/13 signature genes (Table 2) in asthmatic bronchial airway epithelium” value is “significantly downregulated” and the “Expression of IL-13 signature genes (Table 9) in asthmatic bronchial airway epithelium” value is recorded as “significantly downregulated”. For the same compound, in assay [1] (setting [6]), the “PRR4 expression in bronchial epithelial brushings” value is recorded as “not substantially downregulated” and the “RUNX2 expression in bronchial epithelial brushings” value was “not substantially downregulated”. The “Hierarchical clustering by periostin, CLCA1 and serpinB2 expression in bronchial epithelium” value in assay [1] (subjects with IL-13 high asthma at baseline, after one week of fluticasone treatment) is listed as “clustered with subjects who were IL-13 low at baseline”. Besides, the “IgE, level of serum biomarker, median (range)” value in assay [2] is on record as 132 (1-2098) IU/ml. Further, in assay [3], the “CEA, level of serum biomarker, median (range)” value is listed as 1.9 (<0.2-21*) ng/ml. For the same compound, the “Periostin, level of serum biomarker, median (range)” value in assay [4] is recorded as 48 (0-117) ng/ml.

For the origin of these results see patent US20110123530A1, “COMPOSITIONS AND METHODS FOR TREATING AND DIAGNOSING ASTHMA” (priority 2008, published 2011).
